Assay results from US10005773B2, “1-(4-pyrimidinyl)-1H-pyrrolo[3,2-c]pyridine derivatives as NIK inhibitors” (Janssen Pharmaceutica NV, priority 2013, dated 2018).

Tests used:
[1] = tested on: LP-1 cells; experiment: Biological Assay C: antiproliferative activity on LP-1 cells (CellTiter-Glo); assay type: cell-based; conditions: Homo sapiens, 72 hr treatment
Method: (§1) Determination of Antiproliferative Activity on LP-1, L-363 and JJN-3 Cells
(§2) All compounds tested were dissolved in DMSO and further dilutions were made in culture medium. Final DMSO concentration was 0.3% (v/v) in cell proliferation assays. Viability was assessed using CellTiter-Glo cell viability assay kit (Promega). The human LP-1, L-363 and JJN-3 cells (DSMZ) were cultured in RPMI 1640 medium supplemented with 2 mM L-glutamine, and 10% fetal calf serum (PAA). Cells were routinely kept as suspension cells at 37° C. in a humidified 5% CO2 atmosphere. Cells were passaged at a seeding density of 0.2×10^6/ml twice a week. Cells were seeded in black tissue culture treated 96-well plates (Perkin Elmer). Densities used for plating ranged from 2,000 to 6,000 cells per well in a total volume of 75 μl medium. After twenty four hours, drugs and/or solvents were added (25 μl) to a final volume of 100 μl. Following 72 hr of treatment plates were removed from the incubator and allowed to equilibrate to room temperature for approx 10 min. 100 μl CellTiter-Glo reagent was added to each well that was then covered (Perkin Elmer Topseal) and shaken on plate shaker for 10 min. Luminescence was measured on a HTS Topcount (Perkin Elmer). Within an experiment, the results for each treatment were the mean of 2 replicate wells. For initial screening purposes, compounds were tested using a 9 point dilution curve (serial 1:3 dilutions). For each experiment, controls (containing no drug) and a blank incubation (containing cells read at the time of compound addition) were run in parallel. The blank value was subtracted from all control and sample values. For each sample, the mean value for cell growth (in relative light units) was expressed as a percentage of the mean value for cell growth of the control.

[2] = tested on: JJN-3 cells; experiment: Biological Assay C: antiproliferative activity on JJN-3 cells (CellTiter-Glo); assay type: cell-based; conditions: Homo sapiens, 72 hr treatment
Method: as §1, §2

[3] = target: T1, Recombinant Human NF-kappaB-Inducing Kinase (NIK/MAP3K14) (Homo sapiens, UniProt Q99558); experiment: Biological Assay A2: inhibition of auto-phosphorylation of recombinant human NIK/MAP3K14 (AlphaScreen); assay type: biochemical; conditions: 25 microM ATP, 0.2 nM NIK/MAP3K14, 1 h at 25° C., averaged over all batches, read-out: Alpha-Screen IC50
T1 sequence (Q99558 whole entry): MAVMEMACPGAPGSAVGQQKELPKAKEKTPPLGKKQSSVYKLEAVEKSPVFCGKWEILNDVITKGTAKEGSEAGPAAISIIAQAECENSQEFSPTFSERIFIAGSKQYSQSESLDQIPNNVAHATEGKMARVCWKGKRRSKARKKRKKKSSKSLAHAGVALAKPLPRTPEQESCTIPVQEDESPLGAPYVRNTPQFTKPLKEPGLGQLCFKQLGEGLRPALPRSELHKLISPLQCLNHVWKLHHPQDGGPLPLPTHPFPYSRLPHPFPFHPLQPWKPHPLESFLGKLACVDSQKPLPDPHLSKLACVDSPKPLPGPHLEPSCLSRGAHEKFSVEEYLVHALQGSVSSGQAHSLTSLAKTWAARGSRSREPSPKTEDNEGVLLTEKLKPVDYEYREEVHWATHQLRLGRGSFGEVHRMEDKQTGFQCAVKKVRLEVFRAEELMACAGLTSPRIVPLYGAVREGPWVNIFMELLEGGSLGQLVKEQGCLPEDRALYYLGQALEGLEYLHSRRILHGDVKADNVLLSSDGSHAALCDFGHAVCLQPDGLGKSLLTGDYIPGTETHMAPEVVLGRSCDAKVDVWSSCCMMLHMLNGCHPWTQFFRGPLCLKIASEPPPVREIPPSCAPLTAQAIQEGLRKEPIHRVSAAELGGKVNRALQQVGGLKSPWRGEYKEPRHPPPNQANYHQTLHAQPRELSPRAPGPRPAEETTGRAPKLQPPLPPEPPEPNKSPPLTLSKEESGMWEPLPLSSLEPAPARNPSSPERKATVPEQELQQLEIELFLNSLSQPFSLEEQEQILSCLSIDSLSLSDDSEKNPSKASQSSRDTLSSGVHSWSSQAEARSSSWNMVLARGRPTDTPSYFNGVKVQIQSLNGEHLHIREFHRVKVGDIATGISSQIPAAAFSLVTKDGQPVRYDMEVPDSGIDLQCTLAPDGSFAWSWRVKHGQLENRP
Method: Inhibition of Auto-Phosphorylation of Recombinant Human NF-kappaB-Inducing Kinase (NIKIMAP3K14) Activity (AlphaScreen®)
NIK/MAP3K14 auto-phosphorylation activity was measured using the AlphaScreen® (ascreen) format (Perkin Elmer). All compounds tested were dissolved in dimethyl sulfoxide (DMSO) and further dilutions were made in assay buffer. Final DMSO concentration was 1% (v/v) in assays. Assay buffer was 50 mM Tris pH 7.5 containing 1 mM EGTA (ethylene glycol tetraacetic acid), 1 mM DTT (dithiothreitol), 0.1 mM Na3VO4, 5 mM MgCl2, 0.01% Tween® 20. Assays were carried out in 384 well Alphaplates (Perkin Elmer). Incubations consisted of compound, 25 microM Adenosine-5′-triphosphate (ATP), and 0.2 nM NIK/MAP3K14. Incubations were initiated by addition of GST-tagged NIK/MAP3K14 enzyme, carried out for 1 h at 25° C. and terminated by addition of stop buffer containing anti-phospho-IKK Ser176/180 antibody. Protein A Acceptor and Glutathione-Donor beads were added before reading using an EnVision® Multilabel Plate Reader (Perkin Elmer). Signal obtained in the wells containing blank samples was subtracted from all other wells and IC50's were determined by fitting a sigmoidal curve to % inhibition of control versus Log10 compound concentration.

[4] = tested on: L-363 cells; experiment: Biological Assay C: antiproliferative activity on L-363 cells (CellTiter-Glo); assay type: cell-based; conditions: Homo sapiens, 72 hr treatment
Method: as §1, §2

[5] = target: T1, Recombinant Human NF-kappaB-Inducing Kinase (NIK/MAP3K14); experiment: Biological Assay A: inhibition of recombinant human NIK/MAP3K14 activity (MSD, MBP substrate); conditions: 25 μM ATP, 10 nM NIK/MAP3K14, 1 h at 25° C.; averaged over all batches; read-out: Biochemical (MSD MBP) IC50
Method: Inhibition of Recombinant Human NF-kappaB-Inducing Kinase (NIKIMAP3K14) Activity
Assay buffer was 50 mM Tris pH 7.5 containing 1 mM ethylene glycol tetraacetic acid (EGTA), 1 mM dithiothreitol (DTT), 0.1 mM Na3VO4, 5 mM MgCl2, 0.01% Tween® 20. Assays were carried out in 384 well Mesoscale high binding plates which had been coated with myelin basic protein (MBP) and blocked with bovine serum albumin to prevent non-specific protein binding. All compounds tested were dissolved in dimethyl sulfoxide (DMSO) and further dilutions were made in assay buffer. Final DMSO concentration was 1% (v/v) in assays. Incubations consisted of compound (1% DMSO in control and blank wells), 25 μM Adenosine-5′-triphosphate (ATP), and 10 nM NIK/MAP3K14 substituting enzyme with buffer in the blank wells. Incubations were carried out for 1 h at 25° C. and were followed by washing and sequential incubation with rabbit anti-phospho-MBP and anti-rabbit Ig Sulfotag antibody before reading bound Sulfotag on a Mesoscale Discovery. Signal obtained in the wells containing blank samples was subtracted from all other wells and IC50's were determined by fitting a sigmoidal curve to % inhibition of control versus Log10 compound concentration.

[6] = tested on: P-IKKα levels in L363 cells; experiment: Biological Assay B: effect of compounds on P-IKKα levels in L363 cells; assay type: cell-based; conditions: Homo sapiens, L-363, BAFF stimulated, 2 hr treatment, averaged over all batches, read-out: IKKα Cellular IC50
Method: Effect of Compounds on P-IKKα Levels in L363 Cells
All compounds tested were dissolved in DMSO and further dilutions were made in culture medium. Final DMSO concentration was 1% (v/v) in cell assays. The human L363 cells (ATCC) were cultured in RPMI 1640 medium supplemented with GlutaMax and 10% fetal calf serum (PAA). Cells were routinely maintained at densities of 0.2×10^6 cells per ml-1×10^6 cells per ml at 37° C. in a humidified 5% CO2 atmosphere. Cells were passaged twice a week splitting back to obtain the low density. Cells were seeded in 96 well plates (Nunc 167008) at 2×10^6 per ml media in a volume of 75 μl per well plus 25 μl 1 μg/ml recombinant human B-cell activating factor (BAFF/BLyS/TNFSF13B). Seeded cells were incubated at 37° C. in a humidified 5% CO2 atmosphere for 24 hr. Drugs and/or solvents were added (20 μl) to a final volume of 120 μl. Following 2 hr treatment plates were removed from the incubator and cell lysis was achieved by the addition of 30 μl 5× lysis buffer followed by shaking on a plate shaker at 4° C. for 10 min. At the end of this incubation lysed cells were centrifuged at 800×g for 20 min at 4° C. and the lysate was assessed for P-IKKα levels by sandwich immuno-assay carried out in anti-rabbit antibody coated Mesoscale plates. Within an experiment, the results for each treatment were the mean of 2 replicate wells. For initial screening purposes, compounds were tested using an 8 point dilution curve (serial 1:3 dilutions). For each experiment, controls (containing MG132 and BAFF but no test drug) and a blank incubation (containing MG132 and BAFF and 10 μM ADS125117, a test concentration known to give full inhibition) were run in parallel. The blank incubation value was subtracted from all control and sample values. To determine the IC50 a sigmoidal curve was fitted to the plot of % inhibition of control P-IKKα levels versus Log10 compound concentration.

Row | Compound | IC50 [3] [nM] | IC50 [5] [nM] | IC50 [6] [nM] | EC50 [1] [nM] | EC50 [2] [nM] | EC50 [4] [nM]
1 | Nc1nccc(-n2ccc3cnc(C#CC4(O)CCCC4)cc32)n1 [Compound 1] |  | 8.9 | 13 | 929 | 320 | 673
2 | COCCCc1cn(-c2nc(N)ncc2F)c2cc(C#CC(C)(C)O)ncc12 [Compound 39] | 36 |  |  | 849 | 579 | 369
3 | CC(C)(O)C#Cc1cc2c(cn1)c(C1CCN(CCF)CC1)cn2-c1nc(N)ncc1F [Compound 40] | 74 |  |  | 259 | 151 | 93
4 | CN1CCC(c2cn(-c3ccnc(N)n3)c3cc(C#CC(C)(O)C4CC4)ncc23)CC1 (stereo not drawn) [Compound 41] | 78 |  |  | 3240 | 311 | 213
5 | CC(O)(C#Cc1cc2c(cn1)c(C1(F)CN(C3CC3)C1)cn2-c1ccnc(N)n1)C1CC1 (stereo not drawn) [Compound 42] | 638 |  |  | 18200 | 2790 | 1540
6 | CC(O)(C#Cc1cc2c(cn1)c(C1CCN(CCC(F)(F)F)CC1)cn2-c1ccnc(N)n1)C1CC1 (stereo not drawn) [Compound 43] | 67 |  |  | 461 | 442 | 292
7 | CC(O)(C#Cc1cc2c(cn1)c(C1CCN(CCC(F)(F)F)CC1)cn2-c1nc(N)ncc1F)C1CC1 (stereo not drawn) [Compound 46] | 56 |  |  | 979 | 1090 | 469
8 | [2H]C([2H])([2H])C(O)(C#Cc1cc2c(cn1)c(C1CCN(CCC(F)(F)F)CC1)cn2-c1nc(N)ncc1F)C([2H])([2H])[2H] [Compound 49] | 69 |  |  | 244 | 231 | 130
9 | [2H]C([2H])([2H])C(O)(C#Cc1cc2c(cn1)c(C1CCN(CCC(F)(F)F)CC1)cn2-c1ccnc(N)n1)C([2H])([2H])[2H] [Compound 50] | 30 |  |  | 41 | 39 | 23
10 | [2H]C([2H])([2H])C(O)(C#Cc1cc2c(cn1)c(C1CCN(Cc3ccccc3)CC1)cn2-c1ccnc(N)n1)C([2H])([2H])[2H] [Compound 52] | 31 |  |  | 65 | 89 | 49
11 | Cc1cc(C(C)(O)C#Cc2cc3c(cn2)c(C2CCN(C)CC2)cn3-c2ccnc(N)n2)no1 (stereo not drawn) [Compound 54] | 42 |  |  | 2530 | 656 | 213
12 | CN1CCC(c2cn(-c3ccnc(N)n3)c3cc(C#CC(C)(O)c4nccs4)ncc23)CC1 (stereo not drawn) [Compound 56] | 26 |  |  | 7890 | 2490 | 1240

The next lines start with results.

Row | IC50 [3] [nM] | IC50 [5] [nM] | IC50 [6] [nM] | Compound | EC50 [1] [nM] | EC50 [2] [nM] | EC50 [4] [nM]
13 | 13 |  |  | CC(O)(C#Cc1cc2c(cn1)c(C1CCN(CCC(F)(F)F)CC1)cn2-c1ccnc(N)n1)C1CC1 (single isomer, unassigned) [Compound 51] | 199 | 220 | 108
14 | 180 | 73 | 1060 | CN(C)C(=O)c1cn(-c2ccnc(N)n2)c2cc(C#CC(C)(C)O)ncc12 [Compound 2] | > 30000 | 3320 | 5030
15 |  |  | 13 | CC(C)(O)C#Cc1cc2c(ccn2-c2ccnc(N)n2)cn1 [Compound 3] | 84 | 46 | 43
16 | 5.6 | 3.9 | 7.3 | Nc1nccc(-n2ccc3cnc(C#CC4(O)CC4)cc32)n1 [Compound 4] | 122 | 56 | 62
17 | 10 | 2.4 | 18 | CC(O)(C#Cc1cc2c(ccn2-c2ccnc(N)n2)cn1)c1nccs1 (stereo not drawn) [Compound 5] | 3310 | 237 | 2920
18 | 80 | 55 | 204 | CNc1nccc(-n2ccc3cnc(C#CC(C)(C)O)cc32)n1 [Compound 6] | 929 | 744 | 774
19 | 38 |  |  | CC(CC#N)c1cn(-c2nc(N)ncc2F)c2cc(C#CC(C)(C)O)ncc12 (stereo not drawn) [Compound 38] | 2600 | 614 | 261
20 | 71 |  |  | CC(O)(C#Cc1cc2c(cn1)c(C1CCN(C3CC3)CC1)cn2-c1ccnc(N)n1)C1CC1 (stereo not drawn) [Compound 44] | 251 | 202 | 98
21 | 49 |  |  | [2H]C([2H])([2H])C(O)(C#Cc1cc2c(cn1)c(C1CCN(C3CC3)CC1)cn2-c1ccnc(N)n1)C([2H])([2H])[2H] [Compound 45] | 29 | 19 | 8.3
22 | 34 |  |  | CC(O)(C#Cc1cc2c(cn1)c(C1CCN(CCCF)CC1)cn2-c1nc(N)ncc1F)C1CC1 (stereo not drawn) [Compound 47] | 237 | 242 | 113
23 | 227 |  |  | CC(O)(C#Cc1cc2c(cn1)c(C1CCCN(CCC(F)(F)F)C1)cn2-c1nc(N)ncc1F)C1CC1 (stereo not drawn) [Compound 48] | 2230 | 1670 | 1000
24 | 35 |  |  | [2H]C([2H])([2H])N1CCC(c2cn(-c3ccnc(N)n3)c3cc(C#CC(O)(C([2H])([2H])[2H])C([2H])([2H])[2H])ncc23)CC1 [Compound 53] | 107 | 32 | 12
